US10745352B2, “Dual function molecules for histone deacetylase inhibition and ataxia telangiectasia mutated activation and methods of use thereof” (Shuttle Pharmaceuticals, Inc., priority 2015, dated 2020)

How the values were obtained:
[1] = tested on: ATM; assay: ATM activation: phospho-ATM (S1981) ELISA on the nuclear fraction of MCF7 cells; type: cell-based, Human; conditions: 1 μM, time course of 6 hours
Procedure: Several assays were utilized to determine the ability of the compounds of the invention to activate ATM over a period of time. […] The fold change in phospho-ATM was measured over a period of time. Accordingly, the increase in phospho-ATM indicates activation of ATM by the compounds of the invention.
In certain examples, the activity of the compounds of the invention was compared to additional modulators of ATM, such as […] (a specific ATM inhibitor); dimethylsulfoxide (DMSO) (a solvent); 3,3′-diindolylmethane (DIM) (an ATM activator); and irradiation (irradiation may result in the generation of phospho-ATM due to DNA damage). DIM was not used as a comparative compound in Example 5.
Materials: MCF7 Cells; Complete RPMI media: RPMI, 10% Fetal Bovine Serum (FBS), 5% L-glutamine, 5% Pen/Strep; R&D Systems Human P-ATM (S1981) DuoSet IC ELISA Assay Kit; Plate sealers; Normal mouse serum (heat inactivated 56 C for 30 min); 96-well ELISA microtiter plate; 450 nm Plate Reader; 60 mm dishes; Disposable pipettes; Pipet-aid; Pipette tips; Micro-pipetter; Cell scraper; Distilled water; Pierce NE-PER Nuclear and Cytoplasmic Extraction Reagent; Pierce Protease and Phosphotase Inhibitor Mini Tablets; KU-55933; DIM (not used in Example 5); Dimethyl sulfoxide (DMSO); Phosphate buffered saline (PBS); and Sterile micro-tubes and conical tubes; Hemocytometer; Microscope; Micro-centrifuge.
MCF7 Cells were grown in Complete RPMI media and 10^6 cells were seeded into 60 mm dishes. Dishes were then divided into duplicate treatments the following day. Control samples were treated with 3 ml RPMI media for 1 hr. Vehicle samples were treated with 3 ml RPMI media plus 0.1% DMSO for 1 hr. Negative control samples were treated with 10 μM KU-55933 in 3 ml RPMI media plus 0.1% DMSO for 1 Hr. Positive control samples were treated with 0.5 μM DIM in 3 ml RPMI media plus 0.1% DMSO for 30 min. Test Samples were treated with 1 μM of the test compounds (e.g. N-(6-(hydroxyamino)-6-oxohexyl)-1H-indole-2-carboxamide in Example 5) in 3 ml RPMI media plus 0.1% DMSO for 30 min; 1 hr; 2 hrs; 4 hrs; and 6 hrs. At their designated time, samples were harvested on ice using a cell scraper and two washes of 1 ml PBS and kept as a cell pellet on dry ice until all were collected. After all samples were collected they were thawed on ice and separated into cytosolic and nuclear fractions using the Pierce NE-PER Nuclear and Cytoplasmic Extraction Reagent kit with added Pierce protease and phosphotase inhibitor tablet.
After recovery of the separate fractions, the process further included washing cells by suspending the cell pellet with PBS. 1-10×10^6 cells were transferred to a 1.5 mL microcentrifuge tube and a pellet was formed by centrifugation at 500×g for 2-3 minutes. […]

[2] = tested on: breast cancer cells (MCF7 cells); assay: Clonogenic cytotoxicity assay, breast cancer cells; type: cell-based; conditions: Homo sapiens, cell line not named in the sentence (FIG. 9: MCF7 and 184A1)
Procedure: Certain compounds of the invention were tested in both an MTT cytotoxicity assay and clonogenic cytotoxicity assay against breast cancer cells (MCF7 cells) and normal breast tissue cells (184A1 cells) to determine the cytotoxic effect of such cells as a function of concentration.
Specifically, the compounds tested included: N-(6-(hydroxyamino)-6-oxohexyl)-3-methyl-1H-indole-2-carboxamide (SP-1-161); -hydroxy-N^6-(2-(2-methyl-1H-indol-3-yl)ethyl)octanediamide (SP-1-163); (S)—N-(6-(hydroxyamino)-6-oxohexyl)-1-tosylindoline-2-carboxamide (SP-1-169); and (S)-1-((5-(dimethylamino)naphthalene-1-yl)sulfonyl)-N-(6-(hydroxyamino)-6-oxoheyl)indoline-carboxamide (SP-1-171).

[3] = tested on: cervical cancer cells (CasKi); assay: Radiation clonogenic survival, cervical cancer cells; type: cell-based
Procedure: Logarithmically growing cells were seeded into T-25 flasks at various densities to yield approximately 50-100 colonies/flask. After incubation for 24 h at 37° C., cells were treated or not with the compound at the IC50 concentration for 24 h followed by sham or irradiation at room temperature using a Mark-30 irradiator with a 137-Cs source at a fixed dose rate of 2.27 Gy/min. After 10-14 days, cells were fixed and stained with crystal violet, and colonies of more than 50 cells were counted. The surviving fractions of the treated cells were normalized to the plating efficiencies of untreated controls. Radiation survival curves were fitted by computer to the single-hit, multitarget and the linear-quadratic models.
FIGS. 17-19 illustrate the effects of drugs on radiation cologenetic survivals. Cells were pretreated with drug 24 hours prior to exposure to graded doses of gamma radiation. Compounds SP-1-161 and SP-1-303 were tested in a clonogenic survival study with cervical cancer cells (CasKi) with a protocol similar to that described in Example 12. The radiation sensitivity of cells is defined by the terminal slope of the radiation survival curve, which is referred to as D0. The steeper the slope, the smaller the value of D0 and thus the more radiation sensitive the respective cells. Alternatively, a less steep slope results in a larger D0 and a more resistant radiation response. […]

## Cc1c(C(=O)NCCCCCC(=O)NO)[nH]c2ccccc12 [SP-1-161, N-(6-(hydroxyamino)-6-oxohexyl)-3-methyl-1H-indole-2-carboxamide]
[1]
  ATM activation (level of ATM phosphorylation, phospho-ATM): exemplary ATM activation activity
[2]
  IC50: 276 nM
[3]; CasKi cells pretreated with drug 24 hours before graded doses of gamma radiation, DMSO control D0=2.4
  D0 (terminal slope of the radiation survival curve): 1.6
[3]; CasKi cells, drug 24 hours before gamma radiation
  radiation sensitization of CasKi cells (decrease of D0 with respect to control): sensitized CasKi cells
